From patent publication US20170198006A1, “PRMT5 INHIBITORS AND USES THEREOF” (Epizyme, Inc., priority 2014, published 2017)

Experiments:
Z-138 cells = assay: Z-138 Proliferation Assay (Cell Titer Glo, 5 days); assay type: cell-based; details: Homo sapiens, 120 h
Description: Z-138 Proliferation Assay
Z-138 suspension cells were purchased from ATCC (American Type Culture Collection, Manassas, Va.). RPMI/Glutamax medium, penicillin-streptomycin, heat inactivated fetal bovine serum were purchased from Life Technologies, Grand Island, N.Y., USA. V-bottom polypropylene 384-well plates were purchased from Greiner Bio-One, Monroe, N.C., USA. Cell culture 384-well white opaque plates were purchased from Perkin Elmer, Waltham, Mass., USA. Cell-Titer Glo® was purchased from Promega Corporation, Madison, Wis., USA. SpectraMax M5 plate reader was purchased from Molecular Devices LLC, Sunnyvale, Calif., USA.
Z-138 suspension cells were maintained in growth medium (RPMI 1640 supplemented with 10% v/v heat inactivated fetal bovine serum and cultured at 37° C. under 5% CO2. Under assay conditions, cells were incubated in assay medium (RPMI 1640 supplemented with 10% v/v heat inactivated fetal bovine serum and 100 units/mL penicillin-streptomycin) at 37° C. under 5% CO2.
For the assessment of the effect of compounds on the proliferation of the Z-138 cell line, exponentially growing cells were plated in 384-well white opaque plates at a density of 10,000 cells/ml in a final volume of 50 μl of assay medium. A compound source plate was prepared by performing triplicate nine-point 3-fold serial dilutions in DMSO, beginning at 10 mM (final top concentration of compound in the assay was 20 μM and the DMSO was 0.2%). A 100 nL aliquot from the compound stock plate was added to its respective well in the cell plate. […] After addition of compounds, assay plates were incubated for 5 days at 37° C., 5% CO2, relative humidity >90%.
Cell viability was measured by quantitation of ATP present in the cell cultures, adding 35 μl of Cell Titer Glo® reagent to the cell plates. Luminescence was read in the SpectraMax M5 microplate reader. The concentration of compound inhibiting cell viability by 50% was determined using a 4-parametric fit of the normalized dose response curves.

PRMT5/MEP50 = molecular target: T1, PRMT5/MEP50 (Homo sapiens, UniProt O14744); assay: PRMT5 Biochemical Assay (PRMT5/MEP50 enzyme assay on histone H4 peptide substrate, 3H-SAM Flashplate); details: PRMT5 biochemical assay; read-out: Biochemical IC50
T1 construct: Flag-PRMT5; made in house; host or cells: Spodoptera frugiperda (SF9), baculovirus
T1 sequence (O14744 with tags, fused parts or gaps): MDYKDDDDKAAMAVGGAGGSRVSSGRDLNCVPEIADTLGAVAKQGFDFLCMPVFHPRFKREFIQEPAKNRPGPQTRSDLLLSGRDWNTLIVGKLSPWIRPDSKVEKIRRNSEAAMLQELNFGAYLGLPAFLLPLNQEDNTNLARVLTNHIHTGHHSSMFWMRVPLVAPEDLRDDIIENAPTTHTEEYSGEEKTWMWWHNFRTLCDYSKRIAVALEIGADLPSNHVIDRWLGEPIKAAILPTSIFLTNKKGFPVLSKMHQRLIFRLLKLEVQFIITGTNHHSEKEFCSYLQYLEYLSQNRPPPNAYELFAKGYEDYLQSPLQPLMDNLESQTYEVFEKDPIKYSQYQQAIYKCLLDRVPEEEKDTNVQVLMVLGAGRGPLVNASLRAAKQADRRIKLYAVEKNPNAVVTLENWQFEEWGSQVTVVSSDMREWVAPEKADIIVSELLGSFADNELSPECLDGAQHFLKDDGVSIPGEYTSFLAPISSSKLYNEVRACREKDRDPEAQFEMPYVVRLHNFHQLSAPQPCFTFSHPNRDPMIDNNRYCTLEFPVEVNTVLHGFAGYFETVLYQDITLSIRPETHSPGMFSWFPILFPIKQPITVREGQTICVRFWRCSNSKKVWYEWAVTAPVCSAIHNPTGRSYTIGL
T1 sequence (Q9BQA1 with tags, fused parts or gaps partner limits assumed): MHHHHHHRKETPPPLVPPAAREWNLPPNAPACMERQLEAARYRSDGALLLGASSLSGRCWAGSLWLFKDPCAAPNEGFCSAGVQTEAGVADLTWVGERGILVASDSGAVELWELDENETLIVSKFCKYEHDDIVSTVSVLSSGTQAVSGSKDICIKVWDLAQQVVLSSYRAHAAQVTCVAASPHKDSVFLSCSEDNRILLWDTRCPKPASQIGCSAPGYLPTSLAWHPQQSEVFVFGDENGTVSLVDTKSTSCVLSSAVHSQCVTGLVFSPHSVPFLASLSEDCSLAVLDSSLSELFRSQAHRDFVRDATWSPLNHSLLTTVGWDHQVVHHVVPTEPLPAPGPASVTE
Outline: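 Sf9-expressed Flag-PRMT5/6His-MEP50 preincubated with compound 30 min at 25 °C, then methylation of biotinylated H4 1-15 peptide started with ³H-SAM in 20 mM Bicine pH 7.6, 1 mM TCEP, 0.005% BSG, 0.002% Tween20.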

[1] = system: symmetric di-methyl arginine in Z-138 cells; assay: Z-138 Methylation Assay (In Cell Western for symmetric di-methyl arginine and DNA content); assay type: cell-based; details: Homo sapiens, read-out: ICW EC50
Description: Z-138 suspension cells were purchased from ATCC (American Type Culture Collection, Manassas, Va.). RPMI/Glutamax medium, penicillin-streptomycin, heat inactivated fetal bovine serum, and D-PBS were purchased from Life Technologies, Grand Island, N.Y., USA. Odyssey blocking buffer, 800CW goat anti-rabbit IgG (H+L) antibody, and Licor Odyssey infrared scanner were purchased from Licor Biosciences, Lincoln, Nebr., USA. Symmetric di-methyl arginine antibody was purchased from EMD Millipore, Billerica, Mass., USA. 16% Paraformaldehyde was purchased from Electron Microscopy Sciences, Hatfield, Pa., USA.
Z-138 suspension cells were maintained in growth medium (RPMI 1640 supplemented with 10% v/v heat inactivated fetal bovine serum and 100 units/mL penicillin-streptomycin) and cultured at 37° C. under 5% CO2.
Cell Treatment, in Cell Western (ICW) for Detection of Symmetric Di-Methyl Arginine and DNA Content.
Z-138 cells were seeded in assay medium at a concentration of 50,000 cells per mL to a 384-well cell culture plate with 50 μL per well. Compound (100 nL) from 384 well source plates was added directly to 384 well cell plate. Plates were incubated at 37° C., 5% CO2 for 96 hours. After four days of incubation, 40 μL of cells from incubated plates were added to poly-D-lysine coated 384 well culture plates (BD Biosciences 356697). Plates were incubated at room temperature for 30 minutes then incubated at 37° C., 5% CO2 for 5 hours. After the incubation, 40 μL per well of 8% paraformaldehyde in PBS (16% paraformaldahyde was diluted to 8% in PBS) was added to each plate and incubated for 30 minutes. Plates were transferred to a Biotek 405 plate washer and washed 5 times with 100 μL per well of wash buffer (1×PBS with 0.1% Triton X-100 (v/v)). Next 30 μL per well of Odyssey blocking buffer were added to each plate and incubated 1 hour at room temperature. Blocking buffer was removed and 20 μL per well of primary antibody was added (symmetric di-methyl arginine diluted 1:100 in Odyssey buffer with 0.1% Tween 20 (v/v)) and plates were incubated overnight (16 hours) at 4° C. Plates were washed 5 times with 100 μL per well of wash buffer. Next 20 μL per well of secondary antibody was added (1:200 800CW goat anti-rabbit IgG (H+L) antibody, 1:1000 DRAQ5 (Biostatus limited) in Odyssey buffer with 0.1% Tween 20 (v/v)) and incubated for 1 hour at room temperature. The plates were washed 5 times with 100 μL per well wash buffer then 1 time with 100 μL per well of water. Plates were allowed to dry at room temperature then imaged on the Licor Odyssey machine which measures integrated intensity at 700 nm and 800 nm wavelengths. Both 700 and 800 channels were scanned.
First, the ratio for each well was determined by:
Each plate included fourteen control wells of DMSO only treatment (minimum inhibition) as well as fourteen control wells for maximum inhibition treated with 3 μM of a reference compound (Background wells). The average of the ratio values for each control type was calculated and used to determine the percent inhibition for each test well in the plate. Reference compound was serially diluted three-fold in DMSO for a total of nine test concentrations, beginning at 3 μM. Percent inhibition was determined and IC50 curves were generated using triplicate wells per concentration of compound.

SMILES | IC50 (PRMT5/MEP50) [nM] | EC50 [1] [nM] | EC50 (Z-138 cells) [µM]
CC(=O)N1CC(Nc2cc(C(=O)N(C)C[C@H](O)CN3CCc4ccccc4C3)ncn2)C1 [Compound 8-9] | 101 to 1000 | < 100 | 1 to 10
O=C(NC[C@H](O)CN1Cc2ccccc2C1)c1cncc(NC2CCN(CC(F)(F)F)C2)c1 (stereo partly drawn) [Compound 9-11] | 101 to 1000 | 101 to 1000 | > 20
O=C(CC1NC(N2CCc3ccccc3C2)=NC1=O)Nc1ccc(Oc2ccccc2)cc1 (stereo not drawn) [Compound 12-14] | 101 to 1000 | > 20000 | > 20
CC(=O)N1CCC(Nc2cc(C(=O)NC[C@@H](O)CN3CCc4ccccc4C3(C)C)ccn2)CC1 [Compound 13-9] | 101 to 1000 | 101 to 1000 | 1 to 10
CCOc1c(C)cc(S(=O)(=O)NCC2CCN(Cc3cc4cc(OC)ccc4nc3Cl)CC2)cc1C [Compound 15-3] | 101 to 1000 | > 20000 | > 20
CCOC(=O)c1ccc(NC(=O)CC2NC(N3CCN(c4ccccc4)CC3)=NC2=O)cc1 (stereo not drawn) [Compound 20-14] | 101 to 1000 | 1000 to 10000 | > 20
O=C(CC1NC(N2CCN(Cc3ccccc3)CC2)=NC1=O)Nc1ccc(Cl)cc1 (stereo not drawn) [Compound 22-14] | 101 to 1000 | > 20000 | > 20
O=C(NC[C@@H](O)CN1CCc2ccccc2C1)c1cccc(NC2CCOCC2)c1 [Compound 24-9] | 101 to 1000 | 101 to 1000 | > 5

Now from value to compound, other results behind:

IC50 (PRMT5/MEP50) [nM] | EC50 [1] [nM] | SMILES | EC50 (Z-138 cells) [µM]
< 100 | < 100 | O=C(NC[C@H](O)CN1Cc2ccccc2C1)c1cc(NC2COC2)nc(N2CCOCC2)n1 [Compound 8-11] | 1 to 10
< 100 | 101 to 1000 | CC(=O)N1CCC(Nc2cc(C(=O)N(C)C[C@H](O)CN3CCc4ccccc4C3)ncn2)CC1 [Compound 9-9] | 0.101 to 1
< 100 | < 100 | CC(=O)N1CCC(Nc2cc(C(=O)N(C)C[C@H](O)CN3CCc4ccccc4C3)ccn2)CC1 [Compound 10-9] | 0.101 to 1
< 100 | < 100 | CC(=O)N1CCC(Nc2cc(C(=O)NC(C)C(O)CN3CCc4ccccc4C3)ccn2)CC1 (stereo not drawn) [Compound 11-9] | 0.101 to 1
< 100 | < 100 | CC(=O)N1CCC(Nc2cc(C(=O)NCC(C)(O)CN3CCc4ccccc4C3)ccn2)CC1 (stereo not drawn) [Compound 12-9] | 1 to 10
< 100 | 1000 to 10000 | CN(C)c1cccc2c(S(=O)(=O)NC3CCN(Cc4ccccc4)CC3)cccc12 [Compound 14-3] | > 20
< 100 | < 100 | O=C(NC[C@H](O)CN1CCc2ccccc2C1)c1cc(NC2CN(C(=O)C3CCC3)C2)ncn1 [Compound 14-9] | < 0.1
< 100 | 101 to 1000 | Cn1cnc2ccc(-c3cccc(OCC(O)CN4CCc5ccccc5C4)c3)cc21 (stereo not drawn) [Compound 23-9] | > 1
< 100 | 1000 to 10000 | Nc1ncnc2c1ncn2[C@@H]1O[C@H](CSCC[C@@H](N)CO)[C@@H](O)[C@H]1O [Compound 92-1, (2S, 3S, 4R, 5R)-2-((((R)-3-amino-4-hydroxybutyl)thio)methyl)-5-(6-amino-9H-purin-9-yl)tetrahydrofuran-3,4-diol] | 10 to 50
